Laboratory results reported in ChEMBL document CHEMBL5046240, “Design, synthesis, and evaluation of potent RIPK1 inhibitors with in vivo anti-inflammatory activity” (Eur J Med Chem, 2022).

What was measured:
[1] = system: HT-29; assay: Anti-necroptic activity in human HT-29 cells assessed as TNFalpha/Z-VAD (TSZ) induced necroptosis by measuring cell viability preincubated for 1 hr followed by TSZ addition ans measured after 24 hrs by celltiter-glo luminescent cell viability assay; type: functional, cell-based
[2] = system: L929; assay: Anti-necroptic activity in mouse L929 cells assessed as TNFalpha/Z-VAD (TSZ) induced necroptosis by measuring cell viability preincubated for 1 hr followed by TSZ addition and measured after 24 hrs by celltiter-glo luminescent cell viability assay; type: functional, cell-based
[3] = Metabolic stability in human liver microsomes assessed as half life by LC-MS/MS analysis; type: ADME

For `CC(=O)Nc1nc2ncc(-c3cnc(C)c(NC(=O)OC4CCCCC4)c3)cc2s1`, the EC50 [1] was greater than 1000 nM.
Compound `CC(=O)Nc1nc2ccc(-c3cnc(C)c(NC(=O)OC4CCCCC4)c3)nc2s1` has an EC50 [1] of 130 nM and an EC50 [2] of 30 nM.
`CCC(=O)Nc1nc2ccc(-c3cnc(C)c(NC(=O)OC4CCCCC4)c3)cc2s1` gave an EC50 [1] of 38 nM.
In the case of `CCC(C)OC(=O)Nc1cc(-c2ccc3nc(NC(=O)C4CC4)sc3c2)cnc1C` (stereo not drawn), the half-life [3] is reported as 14 min and the EC50 [1] is reported as 17 nM.
In the case of `CC(=O)Nc1nc2ccc(-c3ccc(C)c(NC(=O)OC4CCCCC4)n3)cc2s1`, the EC50 [1] is reported as 650 nM.
For `Cc1ncc(-c2ccc3nc(NS(C)(=O)=O)sc3c2)cc1NC(=O)OC1CCCCC1`, the EC50 [1] was greater than 1000 nM.
In the case of `CC(=O)Nc1nc2cc(-c3cnc(C)c(NC(=O)OC4CCCCC4)c3)ccn2n1`, the EC50 [1] is reported as greater than 1000 nM.
In the case of `CCOC(=O)Nc1nc2ccc(-c3cnc(C)c(NC(=O)OC4CCCCC4)c3)cc2s1`, the EC50 [1] is reported as 53 nM.
`CC(=O)Nc1nc2cnc(-c3cnc(C)c(NC(=O)OC4CCCCC4)c3)cc2s1` gave an EC50 [1] greater than 1000 nM.
With `Cc1ncc(-c2ccc3nc(NC(=O)C4CC4)sc3c2)cc1NC(=O)OC1CCCOC1` (stereo not drawn) the half-life [3] was 15 min and the EC50 [1] was 27 nM.
With `CNC(=O)Nc1nc2ccc(-c3cnc(C)c(NC(=O)OC4CCCCC4)c3)cc2s1` the EC50 [1] was 7 nM.
Work on `Cc1ncc(-c2ccc3nc(NC(=O)C4CC4)sc3c2)cc1NC(=O)OC1CCCC1` yielded a half-life [3] of 5.7 min, an EC50 [1] of 8.9 nM and an EC50 [2] of 8.3 nM.
`CC(=O)Nc1nc2ccc(-c3cnc(C)c(NC(=O)OC4CCCCC4)c3)cn2n1` showed an EC50 [1] greater than 1000 nM.
Work on `CCc1ncc(-c2ccc3nc(NC(C)=O)sc3c2)cc1NC(=O)OC1CCCCC1` yielded an EC50 [1] of 74 nM and an EC50 [2] of 150 nM.
In the case of `CC(=O)Nc1cn2nc(-c3cnc(C)c(NC(=O)OC4CCCCC4)c3)ccc2n1`, the EC50 [1] is reported as 97 nM.
Work on `Cc1ncc(-c2ccc3nc(NC(=O)C4CC4)sc3c2)cc1NC(=O)OC1CCC1` yielded an EC50 [1] of 16 nM.
`CC(=O)Nc1nc2ccc(-c3cnc(C#N)c(NC(=O)OC4CCCCC4)c3)cc2s1` gave an EC50 [1] of 534 nM.
Work on `Cc1ncc(-c2ccc3nc(NC(=O)C4CC4)sc3c2)cc1NC(=O)OC1CC(C)OC(C)C1` (stereo not drawn) yielded a half-life [3] of 12 min, an EC50 [1] of 4.8 nM and an EC50 [2] of 5.2 nM.
For `COc1ncc(-c2ccc3nc(NC(C)=O)sc3c2)cc1NC(=O)OC1CCCCC1`, the EC50 [1] was 182 nM.
With `CNc1nc2ccc(-c3cnc(C)c(NC(=O)OC4CCCCC4)c3)cc2s1` the EC50 [1] was greater than 1000 nM.
With `CC(=O)Nc1nc2ccc(-c3cc(NC(=O)OC4CCCCC4)c(C)nn3)cc2s1` the EC50 [1] was 206 nM.
`Cc1ncc(-c2ccc3nc(NC(=O)c4ccccc4)sc3c2)cc1NC(=O)OC1CCCCC1` gave an EC50 [1] of 52 nM.
Compound `CC(=O)Nc1nc2ccc(-c3cc(NC(=O)OC4CCCCC4)c(C)cn3)cc2s1` has an EC50 [1] of 73 nM and an EC50 [2] of 15 nM.
For `Cc1ncc(-c2ccc3nc(N)sc3c2)cc1NC(=O)OC1CCCCC1`, the EC50 [1] was 100 nM.
`CC(=O)Nc1nc2ccc(-c3cnc(C)c(NC(=O)OC4CCCCC4)c3)cc2s1` gave an EC50 [1] of 23 nM and an EC50 [2] of 13 nM.
In the case of `CC(=O)Nc1cn2cc(-c3cnc(C)c(NC(=O)OC4CCCCC4)c3)ccc2n1`, the EC50 [1] is reported as 97 nM and the EC50 [2] is reported as 45 nM.
`Cc1ncc(-c2ccc3nc(NC(=O)C4CC4)sc3c2)cc1NC(=O)OC1CCC(F)(F)CC1` showed a half-life [3] of 43 min, an EC50 [1] of 6.1 nM and an EC50 [2] of 2 nM.
With `Cc1ncc(-c2ccc3nc(NC(=O)C4CC4)sc3c2)cc1NC(=O)OC1CCCCC1` the half-life [3] was 6.5 min, the EC50 [1] was 1.6 nM and the EC50 [2] was 2.9 nM.
